Where “and” joins values, the source holds several entries; their conditions need not be identical. Identical values can stand only once. Inconclusive results and toxic doses are left out.
Test system: P388 leukemia ip, CD2F1 mice, survival T/C
Assay: NCI In Vivo Anticancer Drug Screen. Data for tumor model P388 Leukemia (intraperitoneal) in CD2F1 (CDF1) mice
Conditions: endpoint: median survival time, higher = longer survival
In short: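 Mice carrying the transplanted tumor received test compound or vehicle. Survival was recorded in each group, and the value is the treated-group measurement divided by that of the vehicle-treated control group.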

[1] = dose: 25.0 mg/kg/injection, schedule: Q01DX009 (ip), vehicle: saline with Tween-80
[2] = dose: 50.0 mg/kg/injection, schedule: Q01DX009 (ip), vehicle: saline with Tween-80
[3] = dose: 100.0 mg/kg/injection, schedule: Q01DX009 (ip), vehicle: saline with Tween-80
[4] = dose: 200.0 mg/kg/injection, schedule: Q01DX009 (ip), vehicle: saline with Tween-80
[5] = dose: 50.0 mg/kg/injection, schedule: Q01DX005 (ip), vehicle: Klucel (hydroxypropylcellulose) (HPC)
[6] = dose: 100.0 mg/kg/injection, schedule: Q01DX005 (ip), vehicle: Klucel (hydroxypropylcellulose) (HPC)
[7] = dose: 60.0 mg/kg/injection, schedule: Q01DX005 (ip), vehicle: saline with Tween-80
[8] = dose: 120.0 mg/kg/injection, schedule: Q01DX005 (ip), vehicle: saline with Tween-80
[9] = dose: 12.5 mg/kg/injection, schedule: Q01DX005 (ip), vehicle: Klucel (hydroxypropylcellulose) (HPC)
[10] = dose: 25.0 mg/kg/injection, schedule: Q01DX005 (ip), vehicle: Klucel (hydroxypropylcellulose) (HPC)
[11] = dose: 50.0 mg/kg/injection, schedule: Q01DX009 (ip), vehicle: saline
[12] = dose: 100.0 mg/kg/injection, schedule: Q01DX009 (ip), vehicle: saline
[13] = dose: 200.0 mg/kg/injection, schedule: Q01DX009 (ip), vehicle: saline
[14] = dose: 200.0 mg/kg/injection, schedule: Q01DX005 (ip), vehicle: Klucel (hydroxypropylcellulose) (HPC)

For OCCOCCN1CCN(CCCN2c3ccccc3Sc3ccc(C(F)(F)F)cc32)CC1, the T/C (dose: 12.5 mg/kg/injection, schedule: Q04DX003 (ip), vehicle: saline) was 114 % of control and the T/C (dose: 25.0 mg/kg/injection, schedule: Q04DX003 (ip), vehicle: saline) was 117 % of control.

C(C#Cc1ccccc1)#Cc1ccccc1 was tested, and the T/C [1] was 98 % of control, the T/C [2] was 99 % of control and the T/C [3] was 96 % of control. The T/C [4] was 98 % of control.

For COC(=O)C1(N)CCCC1, the T/C (dose: 100.0 mg/kg/injection, schedule: Q04DX003 (ip), vehicle: saline) was 90 % of control, the T/C (dose: 200.0 mg/kg/injection, schedule: Q04DX003 (ip), vehicle: saline) was 113 % of control and the T/C (dose: 400.0 mg/kg/injection, schedule: Q04DX003 (ip), vehicle: saline) was 109 % of control.

For CCOc1nc(N)nc(C)c1N=Nc1ccc(O)cc1, the T/C (dose: 60.0 mg/kg/injection, schedule: Q01DX005 (ip), vehicle: saline) was 100 % of control, the T/C (dose: 120.0 mg/kg/injection, schedule: Q01DX005 (ip), vehicle: saline) was 99 % of control and the T/C (dose: 240.0 mg/kg/injection, schedule: Q01DX005 (ip), vehicle: saline) was 96 % of control.

With O=C1/C(=C/c2cccc([N+](=O)[O-])c2)SC(=S)N1C1CC1 the T/C [5] was 89 % of control and the T/C [6] was 89 % of control.

CCOC(=O)Nc1c2ccccc2c(NC(=O)OCC)c2ccccc12 was tested, and the T/C (dose: 50.0 mg/kg/injection, schedule: Q01DX001 (ip), vehicle: saline with Tween-80) was 105 % of control, the T/C (dose: 100.0 mg/kg/injection, schedule: Q01DX001 (ip), vehicle: saline with Tween-80) was 100 % of control and the T/C (dose: 200.0 mg/kg/injection, schedule: Q01DX001 (ip), vehicle: saline with Tween-80) was 102 % of control. For the same compound, the T/C (dose: 400.0 mg/kg/injection, schedule: Q01DX001 (ip), vehicle: saline with Tween-80) was 96 % of control.

In the case of O=C(O)CCCCOc1ccc(N(CCCl)CCCl)cc1, the T/C (dose: 100.0 mg/kg/injection, schedule: Q01DX001 (ip), vehicle: Klucel (hydroxypropylcellulose) (HPC)) is reported as 123 % of control.

With O=NNc1ncccc1OCc1ccccc1 the T/C (dose: 12.5 mg/kg/injection, schedule: Q01DX009 (ip), vehicle: water) was 111 % of control and 112 % of control.

For CC(C)(C)C(=O)Nc1c(Cl)c(C2CC2)nn1-c1ccccc1, the T/C [7] was 100 % of control, the T/C [8] was 102 % of control and the T/C (dose: 240.0 mg/kg/injection, schedule: Q01DX005 (ip), vehicle: saline with Tween-80) was 90 % of control.

For Clc1ncccc1-n1cccc1/C=N\N=C/c1cccn1-c1cccnc1Cl, the T/C [7] was 97 % of control and the T/C [8] was 89 % of control.

For C=CCNSc1ccccc1, the T/C (dose: 12.5 mg/kg/injection, schedule: Q01DX009 (ip), vehicle: Klucel (hydroxypropylcellulose) (HPC)) was 112 % of control and the T/C (dose: 25.0 mg/kg/injection, schedule: Q01DX009 (ip), vehicle: Klucel (hydroxypropylcellulose) (HPC)) was 109 % of control.

In the case of Cc1ccc(S(=O)(=O)OC2CN(C)CC=C2c2ccccc2)cc1 (stereo not drawn), the T/C [9] is reported as 105 % of control, the T/C [10] is reported as 104 % of control and the T/C [5] is reported as 99 % of control. The T/C [6] was 99 % of control.

CCCCCCCCCCC(C)c1ccc(S(=O)(=O)O)cc1 (stereo not drawn) was tested, and the T/C (dose: 50.0 mg/kg/injection, schedule: Q01DX001 (ip), vehicle: saline) was 100 % of control, the T/C (dose: 100.0 mg/kg/injection, schedule: Q01DX001 (ip), vehicle: saline) was 90 % of control and the T/C (dose: 200.0 mg/kg/injection, schedule: Q01DX001 (ip), vehicle: saline) was 95 % of control.

NN1C(=O)/C(=C\c2ccccc2)SC1=S was tested, and the T/C (dose: 100.0 mg/kg/injection, schedule: Q04DX002 (ip), vehicle: Klucel (hydroxypropylcellulose) (HPC)) was 107 % of control, the T/C (dose: 200.0 mg/kg/injection, schedule: Q04DX002 (ip), vehicle: Klucel (hydroxypropylcellulose) (HPC)) was 111 % of control and the T/C (dose: 400.0 mg/kg/injection, schedule: Q04DX002 (ip), vehicle: Klucel (hydroxypropylcellulose) (HPC)) was 98 % of control.

In the case of O=C1/C(=C/c2cccnc2)SC(=S)N1Cc1ccco1, the T/C [2] is reported as 97 % of control, the T/C [3] is reported as 94 % of control and the T/C [4] is reported as 90 % of control.

c1ccc(CSc2ncnc3n[nH]nc23)cc1 was tested, and the T/C (dose: 3.12 mg/kg/injection, schedule: Q01DX009 (ip), vehicle: saline) was 100 % of control, the T/C (dose: 6.25 mg/kg/injection, schedule: Q01DX009 (ip), vehicle: saline) was 106 % of control and the T/C (dose: 12.5 mg/kg/injection, schedule: Q01DX009 (ip), vehicle: saline) was 104 % of control. The T/C (dose: 25.0 mg/kg/injection, schedule: Q01DX009 (ip), vehicle: saline) was 100 % of control.

With CN(C)c1ccc(/C=C/c2ccnc3cc(Cl)ccc23)cc1 the T/C (dose: 12.5 mg/kg/injection, schedule: Q01DX009 (ip), vehicle: saline with Tween-80) was 106 % of control, the T/C [1] was 116 % of control and the T/C [2] was 119 % of control.

In the case of COc1cccc2c1C(=O)c1c(O)c3c(c(O)c1C2=O)CC(O)(c1cscn1)CC3O (stereo not drawn), the T/C (dose: 1.56 mg/kg/injection, schedule: Q01DX009 (ip), vehicle: other) is reported as 104 % of control, the T/C (dose: 3.13 mg/kg/injection, schedule: Q01DX009 (ip), vehicle: other) is reported as 107 % of control and the T/C (dose: 6.25 mg/kg/injection, schedule: Q01DX009 (ip), vehicle: other) is reported as 101 % of control. For the same compound, the T/C (dose: 12.5 mg/kg/injection, schedule: Q01DX009 (ip), vehicle: other) was 105 % of control, the T/C (dose: 25.0 mg/kg/injection, schedule: Q01DX009 (ip), vehicle: other) was 104 % of control and the T/C (dose: 50.0 mg/kg/injection, schedule: Q01DX009 (ip), vehicle: other) was 113 % of control.

CCCCC(=O)C(=O)c1ccc(O)cc1O was tested, and the T/C (dose: 50.0 mg/kg/injection, schedule: Q01DX009 (ip), vehicle: Klucel (hydroxypropylcellulose) (HPC)) was 116 % of control, the T/C (dose: 100.0 mg/kg/injection, schedule: Q01DX009 (ip), vehicle: Klucel (hydroxypropylcellulose) (HPC)) was 114 % of control and the T/C (dose: 200.0 mg/kg/injection, schedule: Q01DX009 (ip), vehicle: Klucel (hydroxypropylcellulose) (HPC)) was 110 % of control.

O=C(OCC1OC(n2cc(C(F)(F)F)c(=O)[nH]c2=O)CC1O)c1ccc([N+](=O)[O-])cc1 (stereo not drawn) was tested, and the T/C (dose: 6.25 mg/kg/injection, schedule: Q01DX005 (ip), vehicle: Klucel (hydroxypropylcellulose) (HPC)) was 110 % of control, the T/C [9] was 110 % of control and the T/C [10] was 115 % of control. The T/C [5] was 161 % of control.

COc1cc(C)c(S(C)=O)cc1OC (stereo not drawn) was tested, and the T/C [11] was 98 % of control, the T/C [12] was 90 % of control and the T/C [13] was 98 % of control.

With COc1cc(C(C)=O)cc([N+](=O)[O-])c1O the T/C (dose: 50.0 mg/kg/injection, schedule: Q04DX003 (ip), vehicle: saline with Tween-80) was 100 % of control, the T/C (dose: 100.0 mg/kg/injection, schedule: Q04DX003 (ip), vehicle: saline with Tween-80) was 100 % of control and the T/C (dose: 200.0 mg/kg/injection, schedule: Q04DX003 (ip), vehicle: saline with Tween-80) was 100 % of control.

COc1ccc(C2(c3ccc(OC)cc3)N=C(n3nc(C)cc3C)NC2=O)cc1 was tested, and the T/C (dose: 50.0 mg/kg/injection, schedule: Q04DX002 (ip), vehicle: saline with Tween-80) was 94 % of control, the T/C (dose: 100.0 mg/kg/injection, schedule: Q04DX002 (ip), vehicle: saline with Tween-80) was 98 % of control and the T/C (dose: 200.0 mg/kg/injection, schedule: Q04DX002 (ip), vehicle: saline with Tween-80) was 94 % of control.

For CN(C)C1=c2c(=O)n(C)c(=O)n(C)c2=NC2C=CC=CN12 (stereo not drawn), the T/C [5] was 100 % of control, the T/C [6] was 96 % of control and the T/C [14] was 86 % of control.

CC(C)(C)[Si](C)(C)OC[C@@H]1OC=CC(=O)[C@H]1O was tested, and the T/C [5] was 102 % of control, the T/C [6] was 94 % of control and the T/C [14] was 101 % of control.

In the case of CN1C(=O)NC2(C1=O)C(=O)N(C)C(=O)N2C (stereo not drawn), the T/C [11] is reported as 91 % of control, the T/C [12] is reported as 92 % of control and the T/C [13] is reported as 95 % of control.

For COc1c(O)ccc(C2=Cc3ccc(O)cc3OC2)c1OC, the T/C [10] was 99 % of control, the T/C [5] was 98 % of control and the T/C [6] was 109 % of control. For the same compound, the T/C [14] was 106 % of control.

With CC(=O)NC1=CC(=Nc2ccc(N(C)C)cc2)C=CC1=O the T/C (dose: 3.12 mg/kg/injection, schedule: Q01DX005 (ip), vehicle: saline) was 114 % of control, the T/C (dose: 6.25 mg/kg/injection, schedule: Q01DX005 (ip), vehicle: saline) was 112 % of control and the T/C (dose: 12.5 mg/kg/injection, schedule: Q01DX005 (ip), vehicle: saline) was 102 % of control.

c1ccc(-c2nc3ccccc3c3ccccc23)cc1 was tested, and the T/C (dose: 50.0 mg/kg/injection, schedule: Q01DX005 (ip), vehicle: saline with Tween-80) was 101 % of control, the T/C (dose: 100.0 mg/kg/injection, schedule: Q01DX005 (ip), vehicle: saline with Tween-80) was 113 % of control and the T/C (dose: 200.0 mg/kg/injection, schedule: Q01DX005 (ip), vehicle: saline with Tween-80) was 102 % of control.
